Data reported in patent publication US8853424B2 (Japan Science and Technology Agency, priority 2008, dated 2014).
Read-outs that look alike come from different tables or passages of the source.

Tests used:
[1] = tested on: SOC (store operated calcium channel); assay: Measurement of SOC IC50 (thapsigargin store depletion, calcium re-addition, CHO cells); format: cell-based; conditions: read-out: SOC IC50
Experimental: The SOC (store operated calcium channel)-suppressive action can be measured by the method described in the Example and using, for example, FDSS 3000.
CHO cell culture medium was replaced with a BSS solution which is an extracellular fluidfree of calcium, the compound of the present invention was added 1 min later, and 1 μM thapsigargin was allowed to act thereon 2 min later to deplete intracellular calcium store. […]

[2] = tested on: Truncated N-terminal huntington 150 Q-EGFP-Neuron 2a cells; assay: Measurement of x-Fold (polyglutamine aggregation inhibitory activity); format: cell-based
Experimental: In the present invention, the polyglutamine aggregation inhibitory activity (x-Fold) can be measured, for example, by the method described in the Example.
The number of the aggregated cells, and the total number of cells were counted by Array Scan V T1 (manufactured by Cellomics, Pittuburg, USA), and the ratio of the aggregated cells to the total number of cells was determined (x-Fold). […]

[3] = tested on: transglutaminase (TGase); assay: Measurement of TG (TGase inhibitory activity, monodansyl cadaverine / N,N-dimethylcasein fluorescence, FDSS 3000); format: biochemical
How it was run: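 Compound (1 μL of 10 mM stock) added to 0.1 mL reaction: 100 mM HEPES-NaOH pH 7.5, 1 mM CaCl2, 20 μM monodansyl cadaverine, 0.05 mg/mL N,N-dimethylcasein, 5 μg/mL TGase. Rate of fluorescence change at 340 nm measured; DMSO control set to 100; TG50 is the concentration halving activity.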

[4] = CHO cells, 1 μM thapsigargin, 2 mM calcium chloride
[5] = polyglutamine aggregation, Truncated N-terminal huntington 150 Q-EGFP-Neuron 2a cells
[6] = ratio of aggregated cells to total number of cells, compound 20 μM, 20 hr, almost 1 without compound, smaller = stronger inhibition
[7] = TGase activity with compound (10 mM, 1 μL in 0.1 ml enzyme reaction solution), DMSO control taken as 100
[8] = TGase inhibitory activity measurement, unit not given

| Compound | IC50 [1, 4] | TGase activity remaining (% of DMSO control = 100) [3, 7] | TGase activity remaining (% of DMSO control = 100) [3, 8] | IC50 ([1]; Table 1) | IC50 ([1]; CHO cells, 1 μM thapsigargin, 2 mM calcium chloride, no unit printed) | TGase activity remaining (% of DMSO control = 100) ([3]; TGase inhibitory activity measurement, unit not given, listed as 3021) | x-Fold [2, 5] | x-Fold [2, 6] | x-Fold ([2]; polyglutamine aggregation inhibitory activity, Table 1) | x-Fold ([2]; polyglutamine aggregation, Truncated N-terminal huntington 150 Q-EGFP-Neuron 2a cells, listed as 3021) |
| --- | --- | --- | --- | --- | --- | --- | --- | --- | --- | --- |
| c1ccc(B(OCc2ccccn2)c2ccc(COc3ccc(B(OCc4ccccn4)c4ccccc4)cc3)cc2)cc1 [Example 429, (4-phenyl-2-pyridylmethoxyborylphenyl)(4′-phenyl-2-pyridylmethoxyborylbenzyl)ether] | 700 nM | 102 | 102 | – | – | – | 0.81 | 0.81 | – | – |
| c1ccc(B(OCc2ccccn2)c2ccc(Oc3ccc(B(OCc4ccccn4)c4ccccc4)cc3)cc2)cc1 [Example 432, bis(4,4′-(phenyl-2-pyridylmethoxyboryl)phenyl)ether] | 300 nM | 60 | 60 | – | – | – | 0.71 | 0.71 | – | – |
| NCCSB(c1ccccc1)c1ccc(Oc2ccc(B(SCCN)c3ccccc3)cc2)cc1 [Example 433, bis(4,4′-(phenyl-aminoethylthioboryl)phenyl)ether] | 500 nM | −5 | −5 | – | – | – | 0.71 | 0.71 | – | – |
| NCCCC(N)C(=O)OB(c1ccccc1)c1ccc(Oc2ccc(B(OC(=O)C(N)CCCN)c3ccccc3)cc2)cc1 (stereo not drawn) [Example 435, bis(4,4′-(phenyl-ornithineboryl)phenyl)ether] | 2000 nM | 26 | 26 | – | – | – | 0.84 | 0.84 | – | – |
| c1ccc(B(OCC2CCCN2)c2ccc(Oc3ccc(B(OCC4CCCN4)c4ccccc4)cc3)cc2)cc1 (stereo not drawn) [Example 438, bis(4,4′-(phenyl-2-pyrrolidinemethoxyboryl)phenyl)ether] | 2000 nM | 29 | 29 | – | – | – | 0.67 | 0.67 | – | – |
| c1ccc(COB(c2ccc(Oc3ccc(B(OCc4ccccn4)c4cccc5ccccc45)cc3)cc2)c2cccc3ccccc23)nc1 [Example 443, bis(4,4′-(naphthyl-2-pyridylmethoxyboryl)phenyl)ether] | 3000 nM | 84 | 84 | – | – | – | 0.63 | 0.63 | – | – |
| NC(=O)CCC(N)C(=O)OB(c1ccc(Oc2ccc(B(OC(=O)C(N)CCC(N)=O)c3cccc4ccccc34)cc2)cc1)c1cccc2ccccc12 (stereo not drawn) [Example 444, bis(4,4′-(naphthylglutamineboryl)phenyl)ether] | 1400 nM | 20 | 20 | – | – | – | 0.65 | 0.65 | – | – |
| c1ccc(B(OCC2CCCN2)c2ccc(COCc3ccc(B(OCC4CCCN4)c4ccccc4)cc3)cc2)cc1 (stereo not drawn) [Example 452, bis(4,4′-(phenyl-2-pyrrolidinemethoxyboryl)benzyl)ether] | 500 nM | 29 | 29 | – | – | – | 0.96 | 0.96 | – | – |
| CCCCNCCOB(c1ccccc1)c1ccc(COCc2ccc(B(OCCNCCCC)c3ccccc3)cc2)cc1 [Example 454, bis(4,4′-(phenyl-butylaminoethoxyboryl)benzyl)ether] | 500 nM | 15 | 15 | – | – | – | 0.97 | 0.97 | – | – |
| c1ccc(NCCOB(c2ccccc2)c2ccc(COCc3ccc(B(OCCNc4ccccc4)c4ccccc4)cc3)cc2)cc1 [Example 455, bis(4,4′-(phenyl-phenylaminoethoxyboryl)benzyl)ether] | 500 nM | 23 | 23 | – | – | – | 1.04 | 1.04 | – | – |
| c1ccc(CNCCOB(c2ccccc2)c2ccc(COCc3ccc(B(OCCNCc4ccccc4)c4ccccc4)cc3)cc2)cc1 [Example 456, bis(4,4′-(phenyl-benzylaminoethoxyboryl)benzyl)ether] | 500 nM | 29 | 29 | – | – | – | 0.87 | 0.87 | – | – |
| CN1CCCCC1COB(c1ccccc1)c1ccc(COCc2ccc(B(OCC3CCCCN3C)c3ccccc3)cc2)cc1 (stereo not drawn) [Example 457, bis(4,4′-(phenyl-N-methylpiperidine-methoxyboryl)benzyl)ether] | 600 nM | 30 | 30 | – | – | – | 1.10 | 1.10 | – | – |

Continued, in another order:

| IC50 [1, 4] | TGase activity remaining (% of DMSO control = 100) [3, 7] | TGase activity remaining (% of DMSO control = 100) [3, 8] | IC50 ([1]; Table 1) | IC50 ([1]; CHO cells, 1 μM thapsigargin, 2 mM calcium chloride, no unit printed) | TGase activity remaining (% of DMSO control = 100) ([3]; TGase inhibitory activity measurement, unit not given, listed as 3021) | Compound | x-Fold [2, 5] | x-Fold [2, 6] | x-Fold ([2]; polyglutamine aggregation inhibitory activity, Table 1) | x-Fold ([2]; polyglutamine aggregation, Truncated N-terminal huntington 150 Q-EGFP-Neuron 2a cells, listed as 3021) |
| --- | --- | --- | --- | --- | --- | --- | --- | --- | --- | --- |
| 400 nM | 43 | 43 | 1500 nM | – | – | NCC(OB(c1ccccc1)c1ccc(Oc2ccc(B(OC(CN)c3ccccc3)c3ccccc3)cc2)cc1)c1ccccc1 (stereo not drawn) [Example 434, bis(4,4′-(phenyl-2-amino-1-phenylethoxyboryl)phenyl)ether] | 0.60 | 0.60 | 0.06 | – |
| 1400 nM | 6 | 6 | – | – | – | NCCSB(c1ccccc1)c1ccc(COCc2ccc(B(SCCN)c3ccccc3)cc2)cc1 [Example 451, bis(4,4′-(phenyl-aminoethylthioboryl)benzyl)ether] | 0.91 | 0.91 | – | – |
| 500 nM | 31 | 31 | – | – | – | CC(CN)OB(c1ccccc1)c1ccc(COCc2ccc(B(OC(C)CN)c3ccccc3)cc2)cc1 (stereo not drawn) [Example 458, bis(4,4′-(phenyl-1-methyl-2-aminoethoxyboryl)benzyl)ether] | 1.10 | 1.10 | – | – |
| 400 nM | 26 | 26 | – | – | – | c1ccc(B(OCC2CCCN2)c2cccc(COCc3cccc(B(OCC4CCCN4)c4ccccc4)c3)c2)cc1 (stereo not drawn) [Example 460, bis(3,3′-(phenyl-2-pyrrolidinomethoxyboryl)benzyl)ether] | 0.95 | 0.95 | – | – |
| 300 nM | 31 | 31 | – | – | – | NC(COB(c1ccccc1)c1cccc(COCc2cccc(B(OCC(N)c3ccccc3)c3ccccc3)c2)c1)c1ccccc1 (stereo not drawn) [Example 462, bis(3,3′-(phenyl-2-phenyl-2-aminoethoxyboryl)benzyl)ether] | 0.92 | 0.92 | – | – |
| 300 nM | 24 | 24 | – | – | – | c1ccc(B(OCC2CCCCN2)c2cccc(COCc3cccc(B(OCC4CCCCN4)c4ccccc4)c3)c2)cc1 (stereo not drawn) [Example 463, bis(3,3′-(phenyl-2-piperidylmethoxyboryl)benzyl)ether] | 0.92 | 0.92 | – | – |
| – | 41 | – | – | 800 nM | 41 | CN(C)CCOB(c1ccccc1)c1cccc(COCc2cccc(B(OCCN(C)C)c3ccccc3)c2)c1 [Example 464, bis(3,3′-(phenyl-dimethylaminoethoxyboryl)benzyl)ether] | – | 0.76 | – | 0.76 |
| 200 nM | 18 | 18 | – | – | – | CC(CN)OB(c1ccccc1)c1cccc(COCc2cccc(B(OC(C)CN)c3ccccc3)c2)c1 (stereo not drawn) [Example 465, bis(3,3′-(phenyl-1-methyl-2-aminoethoxyboryl)benzyl)ether] | 1.06 | 1.06 | – | – |
| 250 nM | 60 | 60 | – | – | – | c1ccc(B(OCc2ccccn2)c2cccc(COCc3cccc(B(OCc4ccccn4)c4ccccc4)c3)c2)cc1 [Example 467, bis(3,3′-(phenyl-2-pyridylmethoxyboryl)benzyl)ether] | 0.98 | 0.98 | – | – |
| 300 nM | 35 | 35 | – | – | – | NCC(OB(c1ccccc1)c1cccc(COCc2cccc(B(OC(CN)c3ccccc3)c3ccccc3)c2)c1)c1ccccc1 (stereo not drawn) [Example 468, bis(3,3′-(phenyl-2-amino-1-phenylethoxyboryl)benzyl)ether] | 0.98 | 0.98 | – | – |
| 250 nM | 15 | 15 | – | – | – | CNCCOB(c1ccccc1)c1cccc(COCc2cccc(B(OCCNC)c3ccccc3)c2)c1 [Example 469, bis(3,3′-(phenyl-N-methylaminoethoxyboryl)benzyl)ether] | 0.94 | 0.94 | – | – |
